Measured values published in PubChem BioAssay AID2743 (NMMLSC, 2010).
“And” between values parts separate entries of the source, which are not always exact repeats. Identical values can stand only once. The source made the active and inactive calls.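 How the source made its calls: active means fitted half-maximal concentration for change in GFP expression of 33 µM or less; inactive means the rest.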

Experiment: concentration-dependent AGP1-GFP change, TOR pathway – cell-based, flow cytometry, S. cerevisiae, MLPCN hits, dose response (AID 2743)
Details: S. cerevisiae AGP1-GFP strain, flow cytometry GFP, 3 h; at 33 µM (top of the series)

SMILES | GFP fluorescence (kMESF)
O/C=c1\ccc2cccc3nc(C(F)(F)F)nc1c23 | 40.7 kMESF (inactive)
O=S(=O)(/N=C(\Sc1ccc(Cl)cc1)c1ccccc1)c1ccccc1 | 36.1 kMESF (inactive)
Cc1nc2ccc(NC(=O)c3oc4ccc(F)cc4c3C)cc2s1 | 35.7 kMESF (inactive)
C#CCOc1c(Br)cc(/C=C2/C(=O)ON=C2C)cc1OC | 27.6 kMESF (inactive)
O=C1C(Cl)=C(Nc2ccccc2O)C(=O)N1CCc1ccccc1 | 39.3 kMESF (inactive)
CCOc1ccc(N2C(=O)C(Cl)=C(Nc3ccccc3O)C2=O)cc1 | 43.1 kMESF (inactive)
CC[C@@]1(c2ccccc2OC)ON(c2ccccc2C(F)(F)F)C1=O | 33.2 kMESF (inactive)
COc1ccc(NC2=C(Cl)C(=O)N(CCc3ccccc3)C2=O)cc1 | 43.7 kMESF (inactive)
COc1cccc(/C=C2\C(=O)N(c3cccc(C)c3)C(=O)c3ccccc32)c1 | 45.3 kMESF (inactive)
Cc1cccc(Nc2nc(-c3ccccn3)cs2)n1 | 30.1 kMESF (inactive)
COc1ccccc1-c1nc2s/c(=C\c3cccs3)c(=O)n2n1 | 27.7 kMESF (inactive)
O=C1C=CC(=O)N1N(c1ccccc1)c1ccccc1 | 37 kMESF (inactive)
c1ccc(-c2csc(Nc3cccnc3)n2)nc1 | 32.1 kMESF (inactive)
Cc1ccsc1/C=C1\C(=O)NC(=S)N(C)C1=O | 20.6 kMESF (inactive)
COc1ccccc1C(=O)NNC(=S)NC(=O)c1cccs1 | 48 kMESF (inactive)
COc1ccc2c(c1)c1nnc(SC)nc1n2C | 17.9 kMESF (inactive)
COc1ccc(N=Nc2ccc(O)c3ncccc23)cc1 | 40.8 kMESF (inactive)
N/C(=N\OC(=O)c1ccccc1Cl)c1ccc(Cl)cc1 | 25.7 kMESF (inactive)
COc1ccc(C(=O)/C=C2/C(=O)Nc3ccccc32)c(OC)c1 | 43.2 kMESF (inactive)
O=C(Nc1ccc(Cl)cc1)ON=C1CCCC1 | 28 kMESF (inactive)
Cc1ccc(-c2nn(C(C)(C)C)c3ncnc(N)c23)cc1 | 40.2 kMESF (inactive)
Oc1cc(-c2ccc(N3CCCCC3)nc2)cc2cccnc12 | 31.5 kMESF (inactive)
O=C(Nc1nc(-c2ccccn2)cs1)C1COc2ccccc2O1 (stereo unspecified) | 26.3 kMESF (inactive)

SMILES | GFP fluorescence (kMESF)
Nc1ccccc1C#CC(=O)c1ccccc1 | 31.7 kMESF (inactive)
O=C(Nc1ccccc1)c1nnsc1S(=O)(=O)c1ccc(Cl)cc1 | 38.4 kMESF (inactive)
CC1=NNC(=O)/C1=C\c1cn(-c2ccccc2)nc1-c1cccs1 | 37.3 kMESF (inactive)
Cc1ccc(S(=O)(=O)c2ncccc2[N+](=O)[O-])cc1 | 47.1 kMESF (inactive)
O=S(=O)(CCN(CCS(=O)(=O)C(F)(F)F)CC1CCCO1)C(F)(F)F (stereo unspecified) | 35.8 kMESF (inactive)
COc1cc(NC(=O)c2ccc(C)cc2)ccc1NC(=O)c1cc2ccccc2o1 | 43.8 kMESF (inactive)
O=C(OCn1ncc(Br)c(Br)c1=O)c1c(F)cccc1F | 42.7 kMESF (inactive)
O=C(Oc1c(Cl)cc(Cl)c2cccnc12)c1ccco1 | 40.7 kMESF (inactive)
O=C(Oc1c(Cl)cc(Cl)c2cccnc12)c1cccs1 | 25.9 kMESF (inactive)
Cc1c(Cc2ccccc2)c(NCCN(C)C)n2c(nc3ccccc32)c1C#N | 45.4 kMESF (inactive)
COc1ccc(N2C(=O)CC(Sc3ncn[nH]3)C2=O)c(OC)c1 (stereo unspecified) | 36.2 kMESF (inactive)
Fc1cccc(Nc2ncnc3c2cnn3-c2ccccc2)c1 | 37 kMESF (inactive)
Cc1ccc(C(=O)NNC(=S)NC(=O)COc2ccccc2)cc1 | 39.8 kMESF (inactive)
Cc1c(N2C(=O)/C(=C\c3ccccc3O)SC2=S)c(=O)n(-c2ccccc2)n1C | 44.8 kMESF (inactive)
O=C(Nc1cccc(C(F)(F)F)c1)Oc1ccc(Cl)c2cccnc12 | 31.6 kMESF (inactive)
O=C1NC(=O)N(Cc2ccc(F)cc2)C(=O)/C1=C/c1cccs1 | 28.1 kMESF (inactive)
Oc1ccc(N=Nc2ccccc2)o1 | 49 kMESF (inactive)
COc1ccc(Cl)cc1C(Nc1cccnc1)c1ccc2cccnc2c1O (stereo unspecified) | 36.3 kMESF (inactive)
CCC(=O)Nc1ccc(NC(=O)c2cc3ccccc3o2)cc1 | 43.4 kMESF (inactive)
Cc1ccccc1N1C(=O)C(Cl)=C(N2CCN(c3ccccc3)CC2)C1=O | 41.1 kMESF (inactive)
COc1cc(N=c2ssnc2Cl)c(OC)cc1Cl | 27.6 kMESF (inactive) and 26.1 kMESF (inactive)
COc1ccc(N=Cc2nc(-c3ccccc3)oc2OC(=O)c2ccccc2)cc1 | 39.5 kMESF (inactive)
CCc1cc(C(=O)Nc2nc(-c3ccccn3)cs2)sc1C | 29.2 kMESF (inactive)
